# Reference: ChEMBL document CHEMBL1201862, “PubChem BioAssay data set” (2004)
# Activity calls are given as the source filed them.
# Columns and labels:
# [1] = target: T1, Ubiquitin-conjugating enzyme E2 N (Homo sapiens, UniProt P61088); assay type: functional
# T1 sequence (P61088 whole entry): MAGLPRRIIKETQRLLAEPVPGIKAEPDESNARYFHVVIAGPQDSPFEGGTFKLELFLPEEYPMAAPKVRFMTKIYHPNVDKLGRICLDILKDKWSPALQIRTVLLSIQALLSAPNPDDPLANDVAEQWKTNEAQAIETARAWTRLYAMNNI
# Bcl-2-related protein A1 = target: T2, Bcl-2-related protein A1 (Mus musculus, UniProt Q07440); assay type: functional;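 also: confirmatory dose–response counterscreen on Bfl-1, used to check hits from a UBC13 polyubiquitin inhibitor campaign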
# T2 sequence (Q07440 whole entry): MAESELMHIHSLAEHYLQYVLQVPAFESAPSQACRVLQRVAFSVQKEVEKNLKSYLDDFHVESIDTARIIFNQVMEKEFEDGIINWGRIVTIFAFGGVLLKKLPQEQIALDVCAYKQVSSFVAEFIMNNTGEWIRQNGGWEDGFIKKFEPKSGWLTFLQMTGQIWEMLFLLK
# [2] = target: T1, Ubiquitin-conjugating enzyme E2 N; assay type: functional; remark: listed apart in the source
# [3] = HIV-1 Vif–A3G interaction blockers – biochemical, TR-FRET, GST-Vif 1-94, biotin-A3G peptide, dose response retest, primary screen (AID 1117319); assay type: functional;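 also: TR-FRET signal of purified GST-Vif binding a biotinylated A3G peptide; inhibitors lower the FRET signal by blocking Vif and A3G binding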
# [4] = target: DNA dC->dU-editing enzyme APOBEC-3G (Homo sapiens, UniProt Q9HC16); assay type: functional;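 also: Dose-response counterscreen measuring inhibition of APOBEC3G DNA deaminase activity, run while confirming APOBEC3A inhibitors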
# [5] = target: DNA dC->dU-editing enzyme APOBEC-3A (Homo sapiens, UniProt P31941); assay: Dose Response confirmation of small molecule APOBEC3A DNA Deaminase Inhibitors via a fluorescence-based single-stranded DNA deaminase assay. [Related pubchem assays (depositor defined):AID493011, AID493024]; assay type: functional
# [6] = target: T3, RNA-binding protein pos-1 (Caenorhabditis elegans, UniProt G5EF15); assay: disruptors of C. elegans POS-1 RNA interaction – biochemical, fluorescence polarization, dose response (AID 1964);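 also: purified POS-1 fused to maltose binding protein made in E. coli; potency of compounds blocking POS-1 binding to fluorescent RNA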
# T3 sequence (G5EF15 whole entry): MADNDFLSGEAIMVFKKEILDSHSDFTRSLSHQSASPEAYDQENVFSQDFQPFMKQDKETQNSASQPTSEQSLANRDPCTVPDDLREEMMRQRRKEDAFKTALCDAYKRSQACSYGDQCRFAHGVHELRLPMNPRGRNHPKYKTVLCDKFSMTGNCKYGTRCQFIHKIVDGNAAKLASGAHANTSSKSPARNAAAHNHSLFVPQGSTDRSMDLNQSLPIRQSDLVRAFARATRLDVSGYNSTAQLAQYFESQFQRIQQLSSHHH
# [7] = target: T4, Zinc finger protein mex-5 (Caenorhabditis elegans, UniProt Q9XUB2); assay: potency of MEX-5 RNA-binding blockers – biochemical, C. elegans, fluorescence polarization, dose response (AID 1960)
# T4 sequence (Q9XUB2 whole entry): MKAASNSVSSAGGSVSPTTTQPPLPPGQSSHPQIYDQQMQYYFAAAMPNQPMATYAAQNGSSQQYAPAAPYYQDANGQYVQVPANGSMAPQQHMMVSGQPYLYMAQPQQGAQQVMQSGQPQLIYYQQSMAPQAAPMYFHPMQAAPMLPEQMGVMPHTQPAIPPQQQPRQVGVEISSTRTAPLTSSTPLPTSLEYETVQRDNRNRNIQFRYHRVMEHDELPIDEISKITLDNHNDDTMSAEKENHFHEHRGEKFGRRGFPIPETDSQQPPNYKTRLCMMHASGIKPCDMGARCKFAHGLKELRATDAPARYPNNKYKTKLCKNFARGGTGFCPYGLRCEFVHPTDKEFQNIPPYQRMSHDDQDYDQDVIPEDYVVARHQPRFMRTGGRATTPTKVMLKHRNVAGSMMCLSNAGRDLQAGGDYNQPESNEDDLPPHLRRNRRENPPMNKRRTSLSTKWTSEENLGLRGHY
# [8] = target: T5, Short transient receptor potential channel 4 (Mus musculus, UniProt Q9QUQ5); assay: calcium entry via TRPC4 opening agents – cell-based, HEK293 TRPC4/mu-opioid, Fluo-4 calcium, dose response (AID 434937); assay type: functional
# T5 sequence (Q9QUQ5 whole entry): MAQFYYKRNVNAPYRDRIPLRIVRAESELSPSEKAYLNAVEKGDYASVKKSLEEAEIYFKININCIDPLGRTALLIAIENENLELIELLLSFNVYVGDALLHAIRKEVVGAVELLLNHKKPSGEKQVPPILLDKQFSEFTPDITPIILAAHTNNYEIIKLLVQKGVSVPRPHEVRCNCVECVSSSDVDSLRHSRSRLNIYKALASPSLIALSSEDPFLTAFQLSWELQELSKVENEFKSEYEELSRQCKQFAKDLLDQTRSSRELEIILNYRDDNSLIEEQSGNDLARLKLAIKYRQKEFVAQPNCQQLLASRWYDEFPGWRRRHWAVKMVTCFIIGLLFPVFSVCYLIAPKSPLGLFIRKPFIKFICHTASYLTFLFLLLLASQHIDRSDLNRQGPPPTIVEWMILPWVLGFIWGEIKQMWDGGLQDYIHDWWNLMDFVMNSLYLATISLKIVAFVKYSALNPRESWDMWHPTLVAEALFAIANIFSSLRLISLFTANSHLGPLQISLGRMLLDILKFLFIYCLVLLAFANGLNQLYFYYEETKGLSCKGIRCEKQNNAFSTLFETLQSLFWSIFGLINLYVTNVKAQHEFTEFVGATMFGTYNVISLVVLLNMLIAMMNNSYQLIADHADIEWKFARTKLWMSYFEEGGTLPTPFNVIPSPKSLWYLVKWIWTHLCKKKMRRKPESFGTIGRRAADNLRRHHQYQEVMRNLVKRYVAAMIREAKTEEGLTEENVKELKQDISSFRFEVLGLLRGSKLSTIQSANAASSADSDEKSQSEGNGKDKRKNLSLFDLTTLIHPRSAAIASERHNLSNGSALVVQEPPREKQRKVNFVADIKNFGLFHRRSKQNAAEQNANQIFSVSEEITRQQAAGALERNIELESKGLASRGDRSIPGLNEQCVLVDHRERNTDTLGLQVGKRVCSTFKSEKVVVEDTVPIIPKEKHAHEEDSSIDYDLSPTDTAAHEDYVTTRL
# [9] = target: T6, Histone-lysine N-methyltransferase NSD2 (Homo sapiens, UniProt O96028); assay type: biochemical
# T6 sequence (O96028 whole entry): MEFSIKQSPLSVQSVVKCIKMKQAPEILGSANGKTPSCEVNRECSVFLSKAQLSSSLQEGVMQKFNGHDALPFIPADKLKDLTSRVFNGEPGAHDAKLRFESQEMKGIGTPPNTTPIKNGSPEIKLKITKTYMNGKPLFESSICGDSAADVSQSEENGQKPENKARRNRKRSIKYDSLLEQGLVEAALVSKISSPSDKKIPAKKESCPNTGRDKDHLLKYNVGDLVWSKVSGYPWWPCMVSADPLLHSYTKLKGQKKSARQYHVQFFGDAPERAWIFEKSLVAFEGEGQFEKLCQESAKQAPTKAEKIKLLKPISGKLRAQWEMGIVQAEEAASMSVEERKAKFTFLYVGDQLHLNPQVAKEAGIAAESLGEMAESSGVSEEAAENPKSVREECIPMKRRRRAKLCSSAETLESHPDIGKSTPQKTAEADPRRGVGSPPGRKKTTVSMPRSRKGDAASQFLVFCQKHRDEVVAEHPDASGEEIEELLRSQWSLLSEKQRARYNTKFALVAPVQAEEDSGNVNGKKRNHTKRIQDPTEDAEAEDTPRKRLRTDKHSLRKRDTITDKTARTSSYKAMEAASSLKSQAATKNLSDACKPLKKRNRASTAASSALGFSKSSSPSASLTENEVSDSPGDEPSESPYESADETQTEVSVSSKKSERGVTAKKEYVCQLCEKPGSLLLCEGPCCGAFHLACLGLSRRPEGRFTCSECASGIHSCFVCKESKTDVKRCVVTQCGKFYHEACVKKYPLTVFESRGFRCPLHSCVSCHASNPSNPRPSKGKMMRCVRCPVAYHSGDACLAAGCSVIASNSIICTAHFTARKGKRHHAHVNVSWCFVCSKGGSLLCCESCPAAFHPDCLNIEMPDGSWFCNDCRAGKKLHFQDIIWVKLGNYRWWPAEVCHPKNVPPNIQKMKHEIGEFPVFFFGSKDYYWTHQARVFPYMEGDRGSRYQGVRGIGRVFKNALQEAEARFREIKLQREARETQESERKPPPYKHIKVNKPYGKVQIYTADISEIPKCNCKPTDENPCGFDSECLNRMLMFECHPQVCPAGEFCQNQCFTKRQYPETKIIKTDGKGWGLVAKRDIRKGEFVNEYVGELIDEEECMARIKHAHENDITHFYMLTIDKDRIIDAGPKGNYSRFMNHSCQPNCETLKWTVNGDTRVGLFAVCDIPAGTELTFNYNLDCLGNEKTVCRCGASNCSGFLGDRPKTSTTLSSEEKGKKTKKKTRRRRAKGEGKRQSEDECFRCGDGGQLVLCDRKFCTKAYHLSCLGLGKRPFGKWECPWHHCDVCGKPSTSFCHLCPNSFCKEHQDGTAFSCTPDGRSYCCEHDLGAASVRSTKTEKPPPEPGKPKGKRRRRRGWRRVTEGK
# [10] = NIH3T3 cell viability loss – ATP luminescence, mouse fibroblasts, counter-screen, dose response (AID 2010); assay type: functional, cell-based;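 also: cells exposed to compound for about 90 hours before reading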
# [11] = Trypanosoma cruzi growth suppression in host cells – NIH3T3 host cells, beta-gal luminescence, confirmation (AID 2044); assay type: functional, cell-based;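 also: intracellular parasites grown in NIH/3T3 mouse fibroblasts as host cells; luminescent beta-galactosidase reporter signal from transgenic T. cruzi replicating inside host cells; inhibitors lower the luminescence signal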
# [12] = growth inhibition of yeast DHODH-expressing 3D7 parasites – SYBR Green, dry powder samples, dose response (AID 1159570); assay type: functional, cell-based;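 also: parasite growth measured after 72 hours of compound exposure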
# [13] = toxicity to human HepG2 hepatoma cells – cell-based, plate reader, dry powder samples, cytotoxicity control, dose response (AID 1159569); assay type: functional;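 also: inhibitor potency with signal falling toward the positive control level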
# [14] = Dd2 malaria parasite growth inhibition potency – SYBR Green, dry powder samples, dose response (AID 1159566); assay type: functional, cell-based;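 also: potency for growth inhibition with lower SYBR green DNA signal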
# [15] = growth inhibition of PfATP4-mutant resistant parasites – NITD609-resistant line, SYBR Green, dry powder, dose response (AID 1159571); assay type: functional, cell-based;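 also: parasites synchronized at ring stage by sorbitol before testing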
# [16] = P. falciparum Dd2 growth inhibitors, dose response, SYBR Green, cherry-picked samples (AID 1159567); assay type: functional, cell-based
# Chain of DNA dC->dU-editing enzyme APOBEC-3A (P31941 whole entry, the tested form may be a part): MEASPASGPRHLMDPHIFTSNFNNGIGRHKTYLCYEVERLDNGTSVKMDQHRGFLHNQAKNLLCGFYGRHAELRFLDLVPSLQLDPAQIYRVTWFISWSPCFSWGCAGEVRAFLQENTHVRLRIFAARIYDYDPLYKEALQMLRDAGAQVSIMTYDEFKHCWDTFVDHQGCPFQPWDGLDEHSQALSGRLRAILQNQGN
# Chain of DNA dC->dU-editing enzyme APOBEC-3G (Q9HC16 whole entry): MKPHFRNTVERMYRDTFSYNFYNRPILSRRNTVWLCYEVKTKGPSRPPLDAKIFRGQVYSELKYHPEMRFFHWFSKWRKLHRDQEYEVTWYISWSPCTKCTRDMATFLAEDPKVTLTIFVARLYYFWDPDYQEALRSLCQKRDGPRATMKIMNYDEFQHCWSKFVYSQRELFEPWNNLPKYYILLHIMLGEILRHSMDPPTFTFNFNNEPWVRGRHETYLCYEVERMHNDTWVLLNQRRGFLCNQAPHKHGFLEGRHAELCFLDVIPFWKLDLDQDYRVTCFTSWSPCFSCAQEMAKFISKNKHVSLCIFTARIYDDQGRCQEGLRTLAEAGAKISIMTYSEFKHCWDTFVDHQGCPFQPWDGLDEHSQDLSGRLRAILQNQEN
smiles,measurement,setting,value
Cc1ccc2cc3c(nc2c1)N(c1ccccc1)CC3,IC50,[1],> 20 µM (inactive)
same,IC50,Bcl-2-related protein A1,> 20 µM (inactive)
same,IC50,[2],18.4 µM (active)
Nc1nc(SCc2nc(-c3ccccc3)no2)nc(O)c1-c1ccccc1,IC50,[3],> 100 µM (active)
Cc1ccc(C(=O)NNC(=O)c2nn(-c3ccc(F)cc3)ccc2=O)cc1,IC50,[1],8.19 µM (active)
same,IC50,Bcl-2-related protein A1,> 20 µM (inactive)
same,IC50,[2],7.29 µM (active)
O=C(O)c1cc2nc(-c3cccs3)cc(C(F)(F)F)n2n1,IC50,[4],> 100 µM (inactive)
same,IC50,[5],12.1 µM (active)
O=C(O)c1cccc(-n2cccc2/C=C2\NC(=O)N(Cc3ccc(F)cc3)C2=O)c1,EC50,[6],> 300 µM (not active)
same,IC50,[4],29.7 µM (active)
same,IC50,[5],11.4 µM (active)
same,EC50,[7],> 150 µM (not active)
CNCCCOc1ccc2c(c1)CCC2,EC50,[8],4.73 µM (active)
same,AC50,[9],> 20 µM (inactive)
Cc1ccc(N(C(=O)c2snc(C(N)=O)c2N)C(C(=O)NCCC(C)C)c2ccco2)cc1 (centres undefined),IC50,[1],10.9 µM (active)
same,IC50,Bcl-2-related protein A1,> 20 µM (inactive)
same,EC50,[10],> 60 µM (not active)
same,EC50,[11],1.1 µM (active)
same,IC50,[2],17 µM (active)
O=C1c2cccc3cccc(c23)C(=O)N1Cc1cccnc1,IC50,[1],18.1 µM (active)
same,IC50,Bcl-2-related protein A1,> 20 µM (inactive)
same,IC50,[2],19.1 µM (active)
Nc1ccc2[nH]c(-c3cccc(-c4nc5cc(N)ccc5[nH]4)n3)nc2c1,IC50,[1],8.28 µM (active)
same,EC50,[6],> 300 µM (not active)
same,IC50,Bcl-2-related protein A1,5.82 µM (active)
same,IC50,[2],9 µM (active)
same,EC50,[7],> 300 µM (not active)
C=CC[n+]1c2n(c3ccccc3c1=O)CCCCC2,IC50,[4],6.84 µM (active)
same,IC50,[5],3.57 µM (active)
O=C(NCc1ccco1)C1CCCN(S(=O)(=O)c2cccc3nsnc23)C1 (centres undefined),IC50,[3],> 100 µM (active)
CN1CCN(C(=O)c2ccc(N(C)S(=O)(=O)c3cccs3)cc2)CC1,IC50,[3],> 100 µM (active)
CN1c2ccsc2/C(=N/NC(=O)c2c(F)cccc2F)CS1(=O)=O,IC50,[3],> 100 µM (active)
N#Cc1ccc(-c2ccc([C@@H]3[C@@H]4CN(C(=O)C5CCCC5)C[C@H]3N4)cc2)cc1,AC50,[12],3.48 µM (active)
same,AC50,[13],51 µM (active)
same,AC50,[14],2.25 µM (active)
same,AC50,[15],3.53 µM (active)
same,AC50,[16],2.72 µM (active)
COc1ccc2c3c([nH]c2c1)[C@H](CO)N(C(=O)Nc1ccc(F)cc1)CC31CCN(Cc2cc(-c3ccccc3)on2)CC1,AC50,[12],1.47 µM (active)
same,AC50,[13],30.3 µM (active)
same,AC50,[14],0.452 µM (active)
same,AC50,[15],0.876 µM (active)
same,AC50,[16],1.43 µM (active)
C[C@@H]1CN([C@H](C)CO)C(=O)c2cccc(NC(=O)c3nc4ccccc4s3)c2O[C@H]1CN(C)C(=O)NC1CCCCC1,AC50,[12],0.114 µM (active)
same,AC50,[13],> 100 µM (inactive)
same,AC50,[14],0.196 µM (active)
same,AC50,[15],0.152 µM (active)
same,AC50,[16],2.73 µM (active)
O=c1cc(O)nc(SCc2ccccc2Cl)[nH]1,IC50,[3],> 100 µM (active)
